Values joined by “and” are separate entries in the source; they are usually repeats but may differ in a detail not shown here. Equal values may be shown once. Read-outs that look alike come from different tables or passages of the source.
What was measured:
[1] = test system: YFV; conditions: rhesus monkey, in vivo; cited from earlier work
[2] = test system: DENV type 1; conditions: rhesus monkeys infected with DENV type 1, therapeutic and prophylactic protocols; cited from earlier work
[3] = test system: Dengue subgenomic replicons; assay: Anti-DENV activity in BHK cells containing Dengue subgenomic replicons; assay type: cell-based, Dengue virus
[4] = test system: Reovirus-1 (Reo-1); assay type: cell-based; conditions: read-out: concentration required to achieve 50% protection from Reovirus-1 induced cytopathogenicity
[5] = test system: BHK cells (Hamster normal kidney fibroblast)
[6] = test system: Poliovirus 1 (Sb-1); assay type: cell-based; conditions: read-out: concentration required to reduce the plaque number by 50%, Sb-1
[7] = test system: Vesicular Stomatitis Virus (VSV); assay type: cell-based; conditions: read-out: concentration required to reduce the plaque number by 50%, VSV
[8] = test system: Yellow fever virus (YFV) 17D vaccine strain; assay type: cell-based; conditions: read-out: EC50, anti-YFV, CPE reduction assay
[9] = test system: TBEV strain Oshima 5-10; assay type: cell-based, Tick-borne encephalitis virus; conditions: read-out: EC50, TBEV, virus yield assay
[10] = test system: VERO-76 (Monkey normal kidney) monolayers
[11] = test system: TBEV strain Oshima 5-10; assay type: cell-based, Tick-borne encephalitis virus
[12] = test system: MDBK (Bovine normal kidney) cells
[13] = test system: Vaccinia Virus (VV); assay type: cell-based; conditions: read-out: concentration required to reduce the plaque number by 50%, VV
[14] = test system: Respiratory Syncytial Virus (RSV); assay type: cell-based; conditions: read-out: concentration required to reduce the plaque number by 50%, RSV
[15] = test system: JEV strain SA-14; assay type: cell-based, Japanese encephalitis virus
[16] = test system: Coxsackievirus B2 (CVB-2); assay type: cell-based; conditions: read-out: concentration required to reduce the plaque number by 50%, CVB-2
[17] = test system: YFV; assay type: cell-based, Yellow fever virus; conditions: read-out: EC50, anti-YFV, virus yield reduction assay
[18] = test system: JEV strain SA-14; assay type: cell-based, Japanese encephalitis virus; conditions: read-out: EC50, JEV, virus yield assay
[19] = test system: Dengue virus (DENV) serotype 2 New Guinea C (NGC) strain; assay type: cell-based; conditions: read-out: EC50, anti-DENV, virus yield reduction assay
[20] = test system: Modoc (MODV) strain M544; assay type: cell-based, Modoc virus; conditions: read-out: EC50, anti-MODV, virus yield reduction assay
[21] = previous studies, Guzzo C A et al. 2002; cited from earlier work
[22] = test system: Herpesvirus 1 (HSV-1); assay type: cell-based; conditions: read-out: concentration required to reduce the plaque number by 50%, HSV-1
[23] = test system: Bovine viral diharrea virus (BVDV); assay type: cell-based; conditions: read-out: concentration required to achieve 50% protection from BVDV induced cytopathogenicity

NC(=O)c1ncn([C@@H]2O[C@H](CO)[C@@H](O)[C@H]2O)n1 [ribavirin, 1-beta-D-ribofuranosyl-1,2,4-triazole-3-carboxamide]
effect on viremia or survival [1]: no effect on viremia or survival was observed | effect on viremia or survival [2]: no effect on viremia or survival was observed

ivermectin
anti-DENV activity in replicon cells [3]: possess anti-DENV activity | EC50 [4]: > 1500 nM | concentration required to reduce the viability of BHK monolayers by 50% [5]: 1.5 µM | EC50 [6]: > 6000 nM | EC50 [7]: > 6000 nM | EC50 [8]: 7.4 nM and 10.3 nM | EC50 [9]: 100 to 1000 nM | concentration required to reduce the viability of VERO 76 monolayers by 50% [10]: 6 µM | EC50 ([11]; read-out: EC50, TBEV, viral titer reduction assay): 200 nM | EC50 ([11]; read-out: EC50, TBEV, viral titration on BHK21 cells): 200 nM | concentration required to reduce the viability of MDBK cells by 50% [12]: 11 µM | EC50 [13]: > 6000 nM | EC50 [14]: > 6000 nM | EC50 ([15]; read-out: EC50, JEV, viral titer reduction assay): 300 nM | EC50 ([15]; read-out: EC50, JEV, viral titration on BHK21 cells): 300 nM | EC50 [16]: > 6000 nM | EC50 [17]: 4.9 nM | EC50 [18]: 100 to 1000 nM | EC50 [19]: 710 nM | EC50 [20]: 730 nM | dose that can be safely employed [21]: up to 10 times the highest FDA-approved dose of 200 μg/kg | EC50 [22]: > 6000 nM | EC50 [23]: ~1500 nM

Source: US8741856B2, “Avermectins and milbemycins for the treatment, prevention or amelioration of flavivirus infections” (priority 2009, dated 2014)
